For series [1] the following is noted: cited from earlier work; for Ksp: silver salt, pure water at 25° C. (Table 1); for Ksp In pure H2O at 25° C. / Ksp in pure H2O at 25° C.: CRC Handbook of Chemistry and Physics; for Ksp In pure H2O at 25° C.: 74th edition (Table 4); for Ksp in pure H2O at 25° C.: 74th edition (Table 8).
A short description of series [2]: Solubility-product constant (Ksp) and molar solubility of metal salts in pure water at 25° C. As to conditions: derived from Ksp (Table 1).

As for `[Cl][Ag]` [AgCl, silver chloride], the Ksp in series [1] is given as 1.77 × 10^−10.

In the case of `[Ag][I]` [Agl, silver iodide], the Ksp in series [1] is given as 8.51 × 10^−17. Besides, the “Molar solubility, silver” value in series [2] was determined as 9.22 nM.

Consider `[Br][Ag]` [Silver bromide], for which the “Ksp In pure H2O at 25° C.” value in series [1] was 5.35 × 10^−13.

Consider `O=S(=O)([O-])[O-].[Ag+].[Ag+]` [Silver sulfate], for which, in series [1], the “Ksp In pure H2O at 25° C.” value was 1.20 × 10^−5 and the Ksp is recorded as 1.20 × 10^−5.

Consider `[O]=[Zn]` [Zinc oxide], for which the “Ksp in pure H2O at 25° C.” value in series [1] was 3.87 × 10^−10.

With Copper sulfide, in series [1], the “Ksp in pure H2O at 25° C.” value was 6.00 × 10^−37.
